The structures appear in SMILES notation. Values joined by “and” are separate entries in the source; they are usually repeats but may differ in a detail not shown here. Identical values can stand only once.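 Following 48 hours of exposure in 96-well plates, responses at five concentrations were used to interpolate endpoints linearly. Abbreviation: GI50, concentration required for 50% inhibition of growth. The concentration for full growth arrest is given as TGI.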 Where a SMILES comes first, the peptide text is derived from it. [ ]: non-standard residue; d: D form. ξ: configuration not given here. Pentanoyl(2-O,4-OH,5-Cl) = O=C(O)C(O)CC(O)CCl; Ile(3ξ) = CCC(C)[C@H](N)C(=O)O; NMeV = CN[C@H](C(=O)O)C(C)C; NMeA = CN[C@@H](C)C(=O)O; βAla = NCCC(=O)O A value given as a limit tells only on which side of the number the result lay.

Some test systems named below: OVCAR-5 ovarian; HOP-92 NSCLC; HL-60(TB) leukemia; NCI-H460 lung; UO-31 renal; SW-620 colon; SF-539 CNS; HCT-116 colon; NCI-H522 lung; HCT-15 colon.
What all share (assay): NCI-60 cell line screen, 48 h

Take `N#Cc1cnc2ccc(NCc3cnc[nH]3)cc2c1Nc1ccc(F)c(Cl)c1`: the GI50 with OVCAR-5 ovarian is 18200 nM; with HOP-92 NSCLC it was 1080 nM; in the assay with HL-60(TB) leukemia it was 15200 nM; in the assay on NCI-H460 lung, 10300 nM; in the assay with UO-31 renal, 3520 nM; with SW-620 colon, 8690 nM. Further, the GI50 was 14700 nM in the assay with SF-539 CNS, 6850 nM with HCT-116 colon, 4600 nM in the assay with NCI-H522 lung and above 100000 nM in the assay with HCT-15 colon. Further, the TGI in the assay on OVCAR-5 ovarian, in the assay with HOP-92 NSCLC, in the assay with HL-60(TB) leukemia, in the assay with NCI-H460 lung, with UO-31 renal and in the assay with SW-620 colon was above 100 µM each time. Besides, the TGI was above 100000 nM in the assay on SF-539 CNS, above 100 µM in the assay on HCT-116 colon, above 100000 nM in the assay on NCI-H522 lung and above 100 µM with HCT-15 colon.
`CC[C@@H]1C(=O)N(C)c2cnc(Nc3ccc(C(=O)NC4CCC(N5CCN(CC6CC6)CC5)CC4)cc3OC)nc2N1C(C)C` (stereo partly drawn): the GI50 in the assay on OVCAR-5 ovarian is 14.6 nM and 50.2 nM; with HOP-92 NSCLC, 44.1 nM and 59.6 nM; with HL-60(TB) leukemia, 2.86 nM and < 16.7 nM; in the assay on NCI-H460 lung, 12.3 nM and 29.7 nM; in the assay on UO-31 renal, 234 nM and 345 nM; in the assay on SW-620 colon it was 5.61 nM and 10.2 nM. Moreover, the GI50 in the assay with SF-539 CNS is 40.9 nM and 37.2 nM; in the assay with HCT-116 colon, 13.6 nM and 22 nM; with NCI-H522 lung, 4.62 nM and < 11.5 nM; in the assay with HCT-15 colon it was 68.6 nM and 145 nM. Further, the TGI in the assay with OVCAR-5 ovarian was > 10 µM and 16.9 µM; in the assay with HOP-92 NSCLC, > 2.9 µM and 5.99 µM; with HL-60(TB) leukemia, 0.0596 µM and 0.0871 µM; in the assay on NCI-H460 lung, > 10 µM and 1.86 µM; with UO-31 renal, > 10 µM and 7.53 µM; in the assay with SW-620 colon, > 10 µM and 11.1 µM. The TGI in the assay with SF-539 CNS is 1360 nM and 1480 nM; in the assay on HCT-116 colon, > 3.83 µM and 1.68 µM; in the assay on NCI-H522 lung it was 82.2 nM and 56.4 nM; in the assay with HCT-15 colon it was > 6.64 µM and 5.33 µM.
On to `N#Cc1nc2cc(Cl)c(Cl)cc2nc1-c1ccc(Cl)cc1`, for which the GI50 in the assay on OVCAR-5 ovarian was above 100000 nM; with HOP-92 NSCLC, 27800 nM; in the assay on HL-60(TB) leukemia, above 100000 nM; in the assay with NCI-H460 lung, 37600 nM; in the assay with UO-31 renal, 34700 nM; in the assay on SW-620 colon it was above 100000 nM. Further, the GI50 is 46200 nM in the assay with SF-539 CNS, 15800 nM in the assay on HCT-116 colon, 51500 nM with NCI-H522 lung and above 71900 nM with HCT-15 colon. Also, the TGI in the assay on OVCAR-5 ovarian, in the assay on HOP-92 NSCLC, in the assay with HL-60(TB) leukemia, in the assay with NCI-H460 lung, in the assay on UO-31 renal and in the assay with SW-620 colon was above 100 µM throughout. Besides, the TGI in the assay on SF-539 CNS was above 100000 nM; in the assay on HCT-116 colon it was 29.9 µM; in the assay on NCI-H522 lung it was above 100000 nM; in the assay on HCT-15 colon it was above 100 µM.
As to `CN1CCN(CCCOC(=O)c2c3c(n4ccccc24)C(=O)c2ncccc2C3=O)CC1`, the GI50 in the assay on OVCAR-5 ovarian was 357 nM; in the assay with HOP-92 NSCLC it was 254 nM; in the assay on HL-60(TB) leukemia, 68.4 nM; with NCI-H460 lung, below 10 nM; with UO-31 renal, below 10 nM; in the assay with SW-620 colon, below 10 nM. The GI50 was below 15.4 nM in the assay on SF-539 CNS, below 10 nM in the assay with HCT-116 colon, below 10 nM in the assay with NCI-H522 lung and below 14.3 nM in the assay on HCT-15 colon. Also, the TGI in the assay on OVCAR-5 ovarian was 3.65 µM; with HOP-92 NSCLC, 16.8 µM; with HL-60(TB) leukemia, 14.6 µM; with NCI-H460 lung, below 0.0118 µM; in the assay on SW-620 colon, 0.0385 µM; in the assay on SF-539 CNS it was 103 nM. In addition, the TGI with HCT-116 colon was 2.91 µM; in the assay on NCI-H522 lung, below 16.4 nM; in the assay on HCT-15 colon, 1.52 µM.
Regarding `CN1CCN(c2cc(F)c(NC3=C(Cl)C(=O)c4ncccc4C3=O)c(F)c2)CC1`, the GI50 is 1820 nM in the assay on OVCAR-5 ovarian; 1690 nM in the assay on HOP-92 NSCLC; 1650 nM in the assay with HL-60(TB) leukemia; 2100 nM with NCI-H460 lung; 1390 nM with UO-31 renal; 1460 nM with SW-620 colon. Further, the GI50 in the assay on SF-539 CNS was 1520 nM; in the assay with HCT-116 colon it was 646 nM; with NCI-H522 lung it was 559 nM; in the assay on HCT-15 colon, 1530 nM. For the same compound, the TGI with OVCAR-5 ovarian was 3.6 µM; with HOP-92 NSCLC, 3.22 µM; in the assay on HL-60(TB) leukemia, 5.46 µM; in the assay with NCI-H460 lung, 8.49 µM; in the assay with UO-31 renal, 2.72 µM; with SW-620 colon, 3.17 µM. Moreover, the TGI in the assay on SF-539 CNS turned out to be 2910 nM; in the assay on HCT-116 colon it was 2.26 µM; in the assay with NCI-H522 lung it was 2260 nM; in the assay with HCT-15 colon it was 3.06 µM.
Consider `CCC(C)[C@@H]1NC(=O)[C@@H]2CCCN2C(=O)C(CC(O)CCl)OC(=O)CCNC(=O)[C@H](C)N(C)C(=O)[C@H](C(C)C)N(C)C1=O` (stereo partly drawn) (cyclo([Ile(3ξ)][NMeV][NMeA][βAla][Pentanoyl(2-O,4-OH,5-Cl)]P)), for which the TGI was above 100 µM in the assay on OVCAR-5 ovarian; 8.13 µM in the assay on HOP-92 NSCLC; above 100 µM in the assay on HL-60(TB) leukemia; above 100 µM in the assay with NCI-H460 lung; above 100 µM with UO-31 renal; above 100 µM with SW-620 colon. Besides, the TGI in the assay on SF-539 CNS is above 100000 nM; in the assay on HCT-116 colon it was above 100 µM; in the assay on NCI-H522 lung, above 100000 nM; in the assay with HCT-15 colon, above 100 µM.
Turning to `CN1CCN(c2ccc3nc(-c4[nH]ncc4Nc4ncnc5[nH]ccc45)[nH]c3c2)CC1`, the GI50 in the assay on OVCAR-5 ovarian is 418 nM; in the assay on HOP-92 NSCLC, 149 nM; in the assay on HL-60(TB) leukemia it was 285 nM; in the assay on NCI-H460 lung, 2680 nM; with UO-31 renal it was 558 nM; with SW-620 colon it was 312 nM. In addition, the GI50 was 176 nM with SF-539 CNS, 66.5 nM with HCT-116 colon, 196 nM with NCI-H522 lung and 1380 nM with HCT-15 colon. Moreover, the TGI came to 9.19 µM in the assay with OVCAR-5 ovarian; 0.535 µM in the assay on HOP-92 NSCLC; 0.686 µM in the assay on HL-60(TB) leukemia; 9.78 µM in the assay on NCI-H460 lung; 2.57 µM in the assay with UO-31 renal; 3.47 µM in the assay with SW-620 colon. The TGI with SF-539 CNS is 496 nM; in the assay on NCI-H522 lung, 805 nM; with HCT-15 colon it was 13.3 µM.
On to `CCOc1ccc2nc3cc(N)ccc3c(N)c2c1`, for which the GI50 in the assay with OVCAR-5 ovarian is 16200 nM and 12800 nM; with HOP-92 NSCLC it was 3400 nM and 2960 nM; with HL-60(TB) leukemia, 19800 nM and 20200 nM; with NCI-H460 lung it was 3130 nM and 3900 nM; with UO-31 renal, 3110 nM and 11600 nM; with SW-620 colon, 3100 nM and 3080 nM. Besides, the GI50 in the assay with SF-539 CNS is 2660 nM and 1790 nM; in the assay with HCT-116 colon, 3620 nM and 3630 nM; in the assay with NCI-H522 lung it was 1800 nM and 1690 nM; in the assay with HCT-15 colon, 23200 nM and 12100 nM. For the same compound, the TGI in the assay with OVCAR-5 ovarian was 39 µM and 25.6 µM; in the assay on HOP-92 NSCLC, 16.4 µM and 11.3 µM; in the assay on HL-60(TB) leukemia, 42.2 µM and 43.7 µM; in the assay with NCI-H460 lung, 12.6 µM and 15.7 µM; in the assay with UO-31 renal it was 27.7 µM and 62.8 µM; in the assay with SW-620 colon, 16.2 µM and 14.4 µM. For the same compound, the TGI in the assay on SF-539 CNS was 13600 nM and 6380 nM; with HCT-116 colon, 15.4 µM and 14.2 µM; in the assay with NCI-H522 lung it was 4540 nM and 5100 nM; in the assay with HCT-15 colon it was > 100 µM and 33.7 µM.

These data come from PubChem BioAssay (NCI).
